Test system: human induced pluripotent stem cell-derived cardiomyocytes (hiPSC-CM)
Assay: Optical recordings of calcium transients in hiPSC-CM monolayers
Type: cell-based
Procedure: Human induced pluripotent stem cell-derived cardiomyocytes (hiPSC-CM) were purchased from AXOL Bioscience. The hiPSC-CM were thawed and plated following the manufacturer’s protocol. Briefly, cells were plated on Matrigel (Corning) pre-coated glass coverslips cultivated in 96-multiwell plates (Falcon). Matrigel was diluted in sterile DMEM/F12 medium (Gibco) (1:130) and incubated for 2 hr at 37°C before plating the cells. hiPSC-CM were cultured at 37°C and 5% CO2. Cultured hiPSC-CM were fed every other day. […]
CaT fluorescence recordings from cell monolayers were recorded using a Leica DM LFS upright microscope. […] Fluorescence signals were passed through the emission filter, collected by a photodiode, and amplified with an Axopatch 200B patch clamp amplifier (Axon Instruments). Calcium fluorescence signals were low-pass Bessell-filtered (Frequency Devices) at 100 Hz, digitized at 1 kHz, and recorded using Clampex 9.2 and analyzed using Clampfit 9.2. […] Since hiPSC-CM were spontaneously beating and at slightly different frequencies between monolayers, the frequency of the action potentials was calculated as the inverse of the time between CaTs. The action potential duration (APD) was measured in the absence and the presence of DHA-Glycine. The APD90 (or the time required to achieve the 90% of repolarization of the CaT) was measured in all the experiments to test the effects of DHA-glycine. […]

CC/C=C\C/C=C\C/C=C\C/C=C\C/C=C\C/C=C\CCC(=O)NCC(=O)O [DHA-glycine, docosahexaenoyl glycine]
CaT APD90c (30 µM, corrected by modified Fridericia's formula, control 472 ± 27 ms, n = 3): 317 ± 9 ms | effect on hiPSC-derived cardiomyocytes at lower doses (doses lower than 30 μM): did not get significant effects at low doses
